In US20230027361A1, “METTL3 MODULATORS” (priority 2019, published 2023):
pIC50: −log10 of the molar value. Like-named read-outs stand apart in the source and are kept apart here.

Key:
[1] = molecular target: METTL1/WDR4 (Homo sapiens, UniProt Q9UBP6); assay: METTL1 Assay (METTL1 biochemical assay)
Outline: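 Radiometric methyltransfer by METTL1/WDR4 (6.25 nM f.c., 5 min preincubation) at ambient temperature in HEPES pH 7.5, KCl, MgCl2, DTT; started with 25 nM 3′-biotinylated RNA and 60 nM 3H-SAM, run 20 min, quenched with 15 μM cold SAM. Product captured on streptavidin flashplates (2 h, 25° C), counted by scintillation.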

[2] = molecular target: PRMT5-MEP50 (Homo sapiens, UniProt O14744); assay: PRMT5 Assay (PRMT5 biochemical assay)
Outline: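 Radiometric methyltransferase read-out: after 60 min reaction, excess unlabelled SAM (15 μM) stops turnover and biotinylated H4 peptide (100 nM) carrying 3H-methyl from 250 nM 3H-SAM is captured on streptavidin flashplates (2 h, 25° C) for scintillation counting. Enzyme, 2.5 nM PRMT5-MEP50, was preincubated 5 min with compound in pH 8.0 Tris buffer with DTT and Tween.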

[3] = molecular target: METTL3/METTL14 (Homo sapiens, UniProt Q86U44); assay: METTL3-14 Standard Enzyme Assay (METTL3 biochemical assay)
Outline: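 Tritium transfer from ³H-SAM (100 nM) to biotinylated RNA (100 nM) captured on streptavidin flashplates and counted by scintillation. Enzyme complex (2.5 nM) with compound, 5 min preincubation, 30 min reaction at ambient temperature, HEPES pH 7.5 buffer, stopped by excess unlabeled SAM.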

[4] = test system: m6A in cellular mRNA of MOLM-13 cells; assay: m6A-mRNA LC-MS/MS Assay (m6A cellular assay); format: cell-based; conditions: Homo sapiens
Method: Cells were harvested by centrifugation followed by mRNA extraction using DIRECT Dynabeads mRNA DIRECT kit (Life Technologies). mRNA was quantified on NanoDrop spectrophotometer (Thermo Fisher Scientific) and digested into single nucleosides using Nucleoside Digestion Mix (New England Biolabs). […] Quantification is performed in comparison with the standard curve, obtained from pure nucleoside standards (Selleck Chemicals) running with the same batch of samples. Percentage m^6A in cellular mRNA is calculated as 100*(m^6A/A).

[5] = test system: MOLM-13 cells; assay: MOLM-13 96 Hour Cell Proliferation Assay; format: cell-based; conditions: Homo sapiens, MOLM-13, 96 h
Outline: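 MOLM-13 cells in RPMI 1640 with 10% FBS were plated overnight at 37 °C, then exposed to compound dilutions at 0.25% DMSO final for 96 h. Viability was read by CellTiter-Glo luminescence, normalised to staurosporine (100% death) and DMSO (0% death) controls, and IC50 was fitted by 4-parameter logistic regression.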

[6] = molecular target: T1, METTL16 (Homo sapiens, UniProt Q86W50); assay: METTL16 Assay (METTL16 biochemical assay); conditions: read-out: METTL16 IC50
T1 sequence (Q86W50 1-562): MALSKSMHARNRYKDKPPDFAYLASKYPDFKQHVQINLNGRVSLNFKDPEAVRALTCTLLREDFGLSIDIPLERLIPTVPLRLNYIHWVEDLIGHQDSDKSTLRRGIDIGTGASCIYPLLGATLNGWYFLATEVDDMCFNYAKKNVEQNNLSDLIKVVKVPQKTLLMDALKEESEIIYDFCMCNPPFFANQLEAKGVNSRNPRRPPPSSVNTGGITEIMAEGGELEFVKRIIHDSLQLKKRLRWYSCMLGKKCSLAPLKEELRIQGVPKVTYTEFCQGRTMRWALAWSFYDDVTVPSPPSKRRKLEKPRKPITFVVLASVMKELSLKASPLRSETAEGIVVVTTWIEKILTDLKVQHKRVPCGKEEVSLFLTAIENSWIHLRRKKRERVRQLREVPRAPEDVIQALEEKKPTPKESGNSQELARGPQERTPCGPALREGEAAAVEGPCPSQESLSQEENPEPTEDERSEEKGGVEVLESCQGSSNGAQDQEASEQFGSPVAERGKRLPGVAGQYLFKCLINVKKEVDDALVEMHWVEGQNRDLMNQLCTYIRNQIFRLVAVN
Method: Assays were performed in a 25 μl-volume in 384-well V-bottom polypropylene microplates (Greiner Bio-One, cat. No. 781280) at ambient temperature. Optimized 1× assay buffer was 20 mM HEPES pH 7.5, 50 mM KCl, 1 mM DTT, 0.01% Tween, 0.01% BSG, 0.004 U/μl RNAseOUT (cat. No. 10777019, ThermoFisher Scientific, Waltham, Mass.). For compound screening METTL16 (final concentration, f.c.=100 nM) was added using a Multidrop Combi (ThermoFisher Scientific, Waltham, Mass.) and preincubated for 5 min. Reactions were started by adding 3′ biotinylated RNA ([…]-biotin) (f.c.=50 nM), 3H-SAM (f.c.=200 nM) and non-radiolabeled SAM (f.c.=800 nM) substrates. Reactions proceeded for 20 minutes and were quenched with excess non-radioactive SAM (f.c.=100 μM). The reactions were then transferred to streptavidin-coated flashplates and incubated for 2 hours at 25° C. Following two washing cycles with 0.1% Tween-20, the plates were sealed and read on a TopCount (PerkinElmer, Waltham, Mass.) plate-based scintillation counter. For determination of kinetic parameters, reaction times were optimized so that measurements were taken during the initial velocity phase of the reaction.

[7] = METTL1 biochemical assay; read-out: METTL1 IC50
[8] = PRMT5 biochemical assay; read-out: PRMT5 IC50
[9] = METTL3 biochemical assay; read-out: METTL3 IC50
[10] = read-out: PRMT5 IC50; PRMT5 biochemical assay
[11] = read-out: METTL3 IC50; METTL3 biochemical assay
[12] = read-out: METTL1 IC50; METTL1 biochemical assay

Sequence of METTL3/METTL14 (Q86U44 whole entry, species assumed): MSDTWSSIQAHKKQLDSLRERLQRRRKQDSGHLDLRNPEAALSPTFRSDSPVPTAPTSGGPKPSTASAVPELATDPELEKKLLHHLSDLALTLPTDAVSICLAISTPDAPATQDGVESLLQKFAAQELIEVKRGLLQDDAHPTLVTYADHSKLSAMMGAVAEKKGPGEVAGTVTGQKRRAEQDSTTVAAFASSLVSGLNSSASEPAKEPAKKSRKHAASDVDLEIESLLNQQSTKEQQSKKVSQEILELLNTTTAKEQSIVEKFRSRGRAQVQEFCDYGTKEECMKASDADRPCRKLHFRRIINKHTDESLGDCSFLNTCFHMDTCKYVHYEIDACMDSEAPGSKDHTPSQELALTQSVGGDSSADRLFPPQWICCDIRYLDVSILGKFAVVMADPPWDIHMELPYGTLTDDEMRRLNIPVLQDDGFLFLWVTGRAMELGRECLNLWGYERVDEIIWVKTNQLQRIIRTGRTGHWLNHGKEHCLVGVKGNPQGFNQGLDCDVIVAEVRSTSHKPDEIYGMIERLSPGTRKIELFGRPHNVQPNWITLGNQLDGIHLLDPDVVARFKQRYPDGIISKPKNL
Sequence of METTL3/METTL14 (Q9HCE5 whole entry partner, species assumed): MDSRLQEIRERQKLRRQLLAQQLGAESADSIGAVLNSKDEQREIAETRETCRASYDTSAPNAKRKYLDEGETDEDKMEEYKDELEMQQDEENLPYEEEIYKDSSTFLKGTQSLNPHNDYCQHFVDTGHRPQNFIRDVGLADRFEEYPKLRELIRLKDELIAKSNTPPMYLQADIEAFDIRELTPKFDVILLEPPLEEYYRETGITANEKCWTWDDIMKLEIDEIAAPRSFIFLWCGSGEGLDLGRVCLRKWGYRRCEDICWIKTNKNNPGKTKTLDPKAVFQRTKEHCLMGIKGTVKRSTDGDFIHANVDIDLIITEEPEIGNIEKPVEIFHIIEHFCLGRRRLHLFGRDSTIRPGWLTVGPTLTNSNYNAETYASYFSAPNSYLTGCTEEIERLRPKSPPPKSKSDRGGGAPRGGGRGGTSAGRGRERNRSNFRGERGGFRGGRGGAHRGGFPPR
Sequence of METTL1/WDR4 (Q9UBP6 whole entry, species assumed): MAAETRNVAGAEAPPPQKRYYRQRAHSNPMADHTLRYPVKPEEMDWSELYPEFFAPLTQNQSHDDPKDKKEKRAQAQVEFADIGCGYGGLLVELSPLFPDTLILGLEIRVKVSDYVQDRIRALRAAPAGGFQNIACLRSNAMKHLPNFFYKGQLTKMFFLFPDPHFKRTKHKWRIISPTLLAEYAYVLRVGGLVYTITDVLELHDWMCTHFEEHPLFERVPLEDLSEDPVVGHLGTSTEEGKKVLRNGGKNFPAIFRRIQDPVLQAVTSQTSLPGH
Sequence of METTL1/WDR4 (P57081 whole entry partner, species assumed): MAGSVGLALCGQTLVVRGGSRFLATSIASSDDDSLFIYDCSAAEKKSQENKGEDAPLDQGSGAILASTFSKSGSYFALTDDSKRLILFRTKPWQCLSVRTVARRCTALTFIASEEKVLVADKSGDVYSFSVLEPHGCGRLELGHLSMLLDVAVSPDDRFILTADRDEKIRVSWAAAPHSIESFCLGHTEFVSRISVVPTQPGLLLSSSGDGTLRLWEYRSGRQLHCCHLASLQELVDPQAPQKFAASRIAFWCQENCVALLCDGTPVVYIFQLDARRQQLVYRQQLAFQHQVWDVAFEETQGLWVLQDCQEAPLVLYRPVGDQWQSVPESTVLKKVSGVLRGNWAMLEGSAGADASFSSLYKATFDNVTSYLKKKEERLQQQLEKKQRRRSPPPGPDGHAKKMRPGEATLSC
Sequence of PRMT5-MEP50 (O14744 whole entry): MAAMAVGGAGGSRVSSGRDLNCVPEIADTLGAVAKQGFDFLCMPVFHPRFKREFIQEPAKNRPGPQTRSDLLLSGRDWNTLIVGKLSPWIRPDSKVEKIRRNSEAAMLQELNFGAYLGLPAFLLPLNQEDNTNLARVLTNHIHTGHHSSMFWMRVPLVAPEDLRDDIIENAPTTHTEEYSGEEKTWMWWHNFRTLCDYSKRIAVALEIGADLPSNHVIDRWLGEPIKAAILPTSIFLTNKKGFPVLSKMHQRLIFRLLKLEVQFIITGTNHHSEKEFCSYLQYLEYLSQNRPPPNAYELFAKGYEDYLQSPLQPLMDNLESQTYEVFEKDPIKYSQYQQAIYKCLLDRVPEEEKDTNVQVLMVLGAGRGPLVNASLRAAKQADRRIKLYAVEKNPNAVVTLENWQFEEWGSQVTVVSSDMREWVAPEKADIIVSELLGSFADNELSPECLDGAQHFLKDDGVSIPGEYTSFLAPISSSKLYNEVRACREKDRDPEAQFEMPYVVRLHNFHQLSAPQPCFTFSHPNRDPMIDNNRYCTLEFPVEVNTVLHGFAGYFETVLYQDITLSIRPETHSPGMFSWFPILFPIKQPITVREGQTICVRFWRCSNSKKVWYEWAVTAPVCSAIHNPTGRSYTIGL
Sequence of PRMT5-MEP50 (Q9BQA1 whole entry partner): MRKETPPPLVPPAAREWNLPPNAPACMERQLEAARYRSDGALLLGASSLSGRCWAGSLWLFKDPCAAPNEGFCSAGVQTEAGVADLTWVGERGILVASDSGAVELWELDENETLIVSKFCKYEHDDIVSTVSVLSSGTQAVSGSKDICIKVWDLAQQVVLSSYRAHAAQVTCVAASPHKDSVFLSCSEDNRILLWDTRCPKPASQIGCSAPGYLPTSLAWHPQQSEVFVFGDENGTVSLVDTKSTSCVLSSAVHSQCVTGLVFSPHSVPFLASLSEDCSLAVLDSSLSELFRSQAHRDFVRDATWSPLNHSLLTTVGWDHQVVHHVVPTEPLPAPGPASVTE

| SMILES | pIC50 [1, 7] | pIC50 [2, 8] | pIC50 [3, 9] | pIC50 ([4]; MOLM-13, m6A cellular assay, read-out: m^6A IC50) | pIC50 [2, 10] | pIC50 [3, 11] | pIC50 ([4]; MOLM-13, read-out: m^6A IC50) | pIC50 [1, 12] | pIC50 [5] | pIC50 [6] |
| --- | --- | --- | --- | --- | --- | --- | --- | --- | --- | --- |
| CCNc1ccc2ccc(OC[C@H]3O[C@@H](n4ccc5c(N)ncnc54)[C@@H](F)[C@@H]3O)cc2n1 [I-5] | < 6.00 | 7.00 to 8.00 | > 8.00 | 5.00 to 6.00 |  |  |  |  |  |  |
| CNc1ccc2ccc(OC[C@H]3O[C@@H](n4cc(-c5ccn(C)n5)c5c(N)ncnc54)[C@H](O)[C@@H]3O)cc2n1 [I-6] | < 6.00 |  |  |  | > 8.00 | > 8.00 | > 6.00 |  |  |  |
| CCNc1ccc2ccc(OC[C@H]3O[C@@H](n4cc(C5CCCC5)c5c(N)ncnc54)[C@H](O)[C@@H]3O)cc2n1 [I-8] |  | > 8.00 | > 8.00 |  |  |  | > 6.00 | < 6.00 |  |  |
| CNc1ccc2ccc(OC[C@H]3O[C@@H](n4cc(-c5ccccn5)c5c(N)ncnc54)[C@@H](F)[C@@H]3O)cc2n1 [I-9] | < 6.00 |  |  |  | 7.00 to 8.00 | > 8.00 | 5.00 to 6.00 |  |  |  |
| Nc1ccnc2cc(OC[C@H]3O[C@@H](n4cc(Br)c5c(N)ncnc54)[C@@H](F)[C@@H]3O)ccc12 [I-13] |  | 7.00 to 8.00 | 6.00 to 7.00 |  |  |  |  |  | < 5.00 | < 6.00 |
| Cc1cc(N)c2ccc(OC[C@H]3O[C@@H](n4cc(Br)c5c(N)ncnc54)C[C@@H]3O)cc2n1 [I-19] |  | 6.00 to 7.00 | 6.00 to 7.00 |  |  |  |  | < 6.00 | < 5.00 | < 6.00 |
| CNc1ccc2ccc(OC[C@H]3O[C@@H](n4cc(C(F)(F)F)c5c(N)ncnc54)[C@@H](F)[C@@H]3O)cc2n1 [I-38] |  | 6.00 to 7.00 | 7.00 to 8.00 |  |  |  |  | < 6.00 |  | < 6.00 |
| CNc1ccc2ccc(OC[C@H]3O[C@@H](n4cc(-c5cccnc5)c5c(N)ncnc54)[C@@H](F)[C@@H]3O)cc2n1 [I-40] | < 6.00 |  |  |  | 6.00 to 7.00 | 7.00 to 8.00 |  |  |  | < 6.00 |
| CNc1ccc2ccc(OC[C@H]3O[C@@H](n4cc(Br)c5c(N)nccc54)[C@@H](F)[C@@H]3O)cc2n1 [I-41] |  | 6.00 to 7.00 | 6.00 to 7.00 |  |  |  |  | < 6.00 |  | < 6.00 |
| CNc1ccc2ccc(OC[C@H]3O[C@@H](n4cc(-c5cc(F)cc(F)c5)c5c(N)ncnc54)[C@@H](F)[C@@H]3O)cc2n1 [I-43] | < 6.00 |  |  |  | 6.00 to 7.00 | 6.00 to 7.00 |  |  |  | < 6.00 |
| CNc1ccc2ccc(OC[C@H]3O[C@@H](n4cc(C)c5c(N)ncnc54)[C@@H](F)[C@@H]3O)cc2n1 [I-44] |  | 7.00 to 8.00 | 7.00 to 8.00 |  |  |  |  | < 6.00 |  | < 6.00 |
| CNc1ccc2ccc(OC[C@H]3C[C@@H](n4cc(C5CCCC5)c5c(N)ncnc54)C[C@@H]3O)cc2n1 [I-50] |  | 6.00 to 7.00 | 7.00 to 8.00 |  |  |  |  | < 6.00 |  | < 6.00 |
| CCNc1ccc2ccc(OC[C@H]3O[C@@H](n4ccc5c(N)ncnc54)[C@H](O)[C@@H]3O)cc2n1 [I-67] |  | > 8.00 | > 8.00 |  |  |  |  | < 6.00 |  | < 6.00 |
